Test results as given in patent US7943318B2, “Microrna-based methods and compositions for the diagnosis, prognosis and treatment of lung cancer” (The Ohio State University Research Foundation, priority 2006, dated 2011).

Experiments:
[1] = tested on: MYO18B mRNA in lung cancer cell lines (H157, A549); experiment: MYO18B mRNA expression after treatment with 5-aza-dC and/or TSA, RT-PCR analysis; type: cell-based, human; details: 1.0 μM, FIG. 12
Experimental: FIG. 12 depicts the expression of MYO18B mRNA after treatment with 5-aza-dC and/or TSA in two lung cancer cell lines (H157, A549), as determined by RT-PCR analysis. Lane 1, no treatment; lane 2, treatment with 1.0 μM 5-aza-dC for 72 hr; lane 3, treatment with 1.0 μM TSA for 24 hr; lane 4, treatment with 1.0 μM 5-aza-dC for 72 hours, followed by treatment with 1.0 μM TSA for 24 hr. GAPDH expression served as a loading control.
A549 and NCI-H157 lung cancer cells (available from the American Tissue Culture Collection) were incubated with medium containing 1.0 μM 5-aza-dC (Sigma, St. Louis, Mo.) for 48 hr, then were incubated for an additional 24 hr in the presence of 1.0 μM TSA (Sigma, St. Louis, Mo.). Total RNA was isolated with TRIzol® Reagent (Invitrogen), and microarray analysis was performed as described above. Each treatment was performed in triplicate.
miRNA microarrays were used to analyze the expression of various miRNAs upon treatment with 5-aza-2′-deoxycytidine (5-aza-dC), a DNA methylation inhibitor, and/or Trichostatin A (TSA), a potent histone deacteylase inhibitor, in two lung cancer cell lines (A549 and NCI-H157).

[2] = tested on: miRNA expression in A549 and NCI-H157 lung cancer cells; experiment: miRNA microarray after treatment with 5-aza-dC and/or TSA; type: cell-based, human; details: 1.0 μM, triplicate
Experimental: Microarray analysis was performed as previously described (Liu, C. G., et al., Proc. Natl. Acad. Sci. U.S.A. 101:9740-9744 (2004)). Briefly, 5 μg of total RNA was hybridized with miRNA microarray chips containing 352 probes in triplicate. Specifically, these chips contain gene-specific 40-mer oligonucleotide probes, spotted by contacting technologies and covalently attached to a polymeric matrix, which were generated from 161 human miRNAs, 84 mouse miRNAs, miRNAs from three other species and tRNA. The microarrays were hybridized in 6×SSPE (0.9 M NaCl/60 mM NaH2PO4.H2O/8 mM EDTA, pH 7.4)/30% formamide at 25° C. for 18 hr, washed in 0.75×TNT (Tris.HCl/NaCl/Tween 20) at 37° C. for 40 min, and processed using a method of direct detection of biotin-containing transcripts by streptavidin-Alexa647 conjugate (Molecular Probes, Carlsbad, Calif.). Processed slides were scanned using a PerkinElmer ScanArray XL5K Scanner, with the laser set to 635 nm, at Power 80 and PMT 70 setting, and a scan resolution of 10 μm. An average value of the three spot replicates for each miRNA was normalized and analyzed in BRB-ArrayTools version 3.2.3. After excluding negative values with hybridization intensity below background, normalization was performed by using a per chip on median normalization method and normalization to median array as reference. […]

Row | SMILES | expression of MYO18B (transcriptionally-silenced gene) following treatment [1] | changes in miRNA expression on microarray after treatment [2]
1 | Nc1ncn([C@H]2C[C@H](O)[C@@H](CO)O2)c(=O)n1 [5-aza-dC, 5-aza-2′-deoxycytidine] | increased expression | no miRNAs from the microarray displayed statistically-significant changes in expression
2 | CC(/C=C/C(=O)NO)=C\[C@@H](C)C(=O)c1ccc(N(C)C)cc1 [TSA, Trichostatin A] | increased expression | no miRNAs from the microarray displayed statistically-significant changes in expression
